Structure (SMILES)	melting point
CN1CC=C(c2c[nH]c3ccc(NS(=O)(=O)c4cccc5ccccc45)cc23)CC1	244 to 245 °C (dec.)
Cc1ccc2c(c1)COC(=O)N2C1CCN(CC(=O)Nc2ccc3c(c2)-c2ccccc2C3=O)CC1	237 to 239 °C
CN(C)CCn1ccc2cc(NS(=O)(=O)/C=C/c3ccccc3)ccc21	108 to 111 °C
CCn1c2ccccc2c2cc(NC(=O)CN3CCC(N4C(=O)OCc5cc(C)ccc54)CC3)ccc21.Cl	247 to 252 °C
Cc1ccc2c(c1)COC(=O)N2C1CCN(CC(=O)Nc2ccc(C3CCCCC3)cc2)CC1.Cl	242 to 246 °C
CN(C)CCc1c[nH]c2ccc(NS(=O)(=O)c3ccc(Oc4ccccc4)cc3)cc12	152 to 154 °C
CCN(CC)CCc1c[nH]c2ccc(N(CC)S(=O)(=O)c3ccc4ccccc4c3)cc12	49 to 50 °C
Cc1c(S(=O)(=O)Nc2ccc3[nH]cc(CCN4CCOCC4)c3c2)sc2ccc(Cl)cc12	200 to 201 °C
CCN(CC)CCn1ccc2cc(NS(=O)(=O)c3ccc4ccccc4c3)ccc21	97 to 104 °C
CCN(CC)CCc1c[nH]c2ccc(NS(=O)(=O)c3cccc4ccccc34)cc12	170 °C
CN(C)CCn1ccc2cc(NS(=O)(=O)c3ccc4ccccc4c3)ccc21	54 to 57 °C
CCn1c2ccccc2c2cc(NC(=O)CN3CCC(N4C(=O)OCc5cc(Cl)ccc54)CC3)ccc21.Cl	265 to 268 °C
CCCN(CCC)CCc1c[nH]c2ccc(NS(=O)(=O)c3sc4ccc(Cl)cc4c3C)cc12	90 to 95 °C
Cc1cc2cc(NS(=O)(=O)c3ccc4ccccc4c3)ccc2n1CCN(C)C	199 to 200 °C
CN1CCN(Cc2c[nH]c3ccc(NS(=O)(=O)/C=C/c4ccccc4)cc23)CC1	203 °C (dec.)
CCn1c2ccccc2c2cc(NC(=O)CN3CCC(N4C(=O)OCc5cccc(C)c54)CC3)ccc21.Cl	229 to 232 °C
O=S(=O)(Nc1ccc2[nH]cc(CCN3CCOCC3)c2c1)c1ccc2ccccc2c1	85 to 90 °C
Cc1cccc2c1N(C1CCN(CC(=O)Nc3ccccc3)CC1)C(=O)OC2.Cl	232 to 239 °C
Cc1c(S(=O)(=O)Nc2ccc3[nH]cc(CCN4CCCC4)c3c2)sc2ccc(Cl)cc12	201 to 203 °C

Structure (SMILES)	melting point
O=S(=O)(Nc1ccc2c(ccn2CCCN2CCCCC2)c1)c1ccc2ccccc2c1	92 to 108 °C
Cl.O=C(CN1CCC(N2C(=O)OCc3cc(Cl)ccc32)CC1)Nc1ccc(C(F)(F)F)cc1	284 to 285 °C
O=S(=O)(Nc1ccc2[nH]cc(CCN3CCCC3)c2c1)c1cccc2ccccc12	212 to 214 °C
O=S(=O)(Nc1ccc2[nH]cc(CCN3CCCC3)c2c1)c1ccc2ccccc2c1	180 to 182 °C
Cc1cccc2c1N(C1CCN(CC(=O)Nc3ccc(Cl)cc3)CC1)C(=O)OC2.Cl	245 to 253 °C
CCCN(CCC)CCc1c[nH]c2ccc(NS(=O)(=O)c3ccc4ccccc4c3)cc12	58 to 64 °C (dec.)
CN(C)CCc1c[nH]c2ccc(NS(=O)(=O)c3cccc4c(Cl)cccc34)cc12	201 to 203 °C
Cc1cccc2c1N(C1CCN(CC(=O)Nc3ccc(Oc4ccccc4)cc3)CC1)C(=O)OC2.Cl	162 to 167 °C
CN1CCN(CCc2c[nH]c3ccc(NS(=O)(=O)c4ccc5ccccc5c4)cc23)CC1	129 to 131 °C
Cc1ccc2c(c1)COC(=O)N2C1CCN(CC(=O)Nc2ccccc2Cl)CC1	146 to 148 °C
Cc1ccc2c(c1)COC(=O)N2C1CCN(CC(=O)Nc2ccccc2C(F)(F)F)CC1	169 to 173 °C
CN(C)CCn1ccc2cc(NS(=O)(=O)c3ccccc3)ccc21	139 to 141 °C
Cc1cccc2c1N(C1CCN(CC(=O)Nc3ccc(C4CCCCC4)cc3)CC1)C(=O)OC2.Cl	249 to 253 °C
Cl.O=C(CN1CCC(N2C(=O)OCc3cc(Cl)ccc32)CC1)Nc1ccc(C2CCCCC2)cc1	249 to 256 °C
Cc1cccc2c1N(C1CCN(CC(=O)Nc3ccccc3C(=O)c3ccccc3)CC1)C(=O)OC2.Cl	168 to 176 °C
Cc1cccc2c1COC(=O)N2C1CCN(CC(=O)Nc2ccc3[nH]c4ccccc4c3c2)CC1	213 °C
O=C(CN1CCC(N2C(=O)OCc3c(F)cccc32)CC1)Nc1ccc2[nH]c3ccccc3c2c1	195 °C
Cc1cccc2c1COC(=O)N2C1CCN(CC(=O)Nc2ccc3oc4ccccc4c3c2)CC1	204 °C
O=C1OCc2ccccc2N1C1CCN(S(=O)(=O)c2cccc(Cl)c2Cl)CC1	185 to 187 °C

The next lines start with the values.

melting point	Structure (SMILES)
272 to 277 °C	Cl.O=C(CN1CCC(N2C(=O)OCc3ccccc32)CC1)Nc1ccc2c(c1)CCC2=O
230 to 231 °C	Cl.O=C(CN1CCC(N2C(=O)OCc3ccccc32)CC1)Nc1ccc2c(c1)CCC2
240 to 244 °C	Cc1ccc2c(c1)COC(=O)N2C1CCN(CC(=O)Nc2ccc(C(=O)c3ccccc3)cc2)CC1.Cl
280 to 282 °C	Cl.O=C(CN1CCC(N2C(=O)OCc3ccccc32)CC1)Nc1ccc2c(c1)C(=O)c1ccccc1C2=O
254 to 257 °C	CCN(c1ccccc1)c1ccc(NC(=O)CN2CCC(N3C(=O)OCc4ccccc43)CC2)cc1.Cl
171 to 173 °C	CC(C)N(c1ccccc1)c1ccc(NC(=O)CN2CCC(N3C(=O)OCc4ccccc43)CC2)cc1.Cl
272 to 276 °C	Cl.O=C(CN1CCC(N2C(=O)OCc3ccccc32)CC1)Nc1ccc(Cl)cc1
207 to 212 °C	Cc1cccc2c1N(C1CCN(CC(=O)Nc3ccc4c(c3)-c3ccccc3C4O)CC1)C(=O)OC2.Cl (stereo not drawn)
> 225 °C (dec.)	Cl.O=C(CN1CCC(N2C(=O)OCc3ccccc32)CC1)Nc1ccc2c(c1)C(O)c1ccccc1-2 (stereo not drawn)
276 to 284 °C	Cl.O=C(CN1CCC(N2C(=O)OCc3ccccc32)CC1)Nc1ccc(C(F)(F)F)cc1
262 to 272 °C	Cl.O=C(CN1CCC(N2C(=O)OCc3ccccc32)CC1)Nc1ccccc1
154 to 157 °C	Cc1ccc2c(c1)COC(=O)N2C1CCN(CC(=O)Nc2ccccc2)CC1
211 to 216 °C	Cl.O=C(CN1CCC(N2C(=O)OCc3ccccc32)CC1)Nc1ccccc1C(=O)c1ccccc1
167 to 170 °C	Cc1ccc2c(c1)COC(=O)N2C1CCN(CC(=O)Nc2ccccc2C(=O)c2ccccc2)CC1
> 300 °C (dec.)	Cl.O=C(CN1CCC(N2C(=O)OCc3cc(Cl)ccc32)CC1)Nc1ccc2c(c1)C(=O)c1ccccc1-2
> 300 °C (dec.)	Cc1cccc2c1N(C1CCN(CC(=O)Nc3ccc4c(c3)C(=O)c3ccccc3-4)CC1)C(=O)OC2.Cl
286 to 289 °C	Cl.O=C(CN1CCC(N2C(=O)OCc3cc(Cl)ccc32)CC1)Nc1ccc2c(c1)C(O)c1ccccc1-2 (stereo not drawn)
196 to 199 °C	Cc1ccc2c(c1)COC(=O)N2C1CCN(CC(=O)Nc2ccc3c(c2)C(O)c2ccccc2-3)CC1.Cl (stereo not drawn)
283 to 285 °C	Cc1cccc2c1N(C1CCN(CC(=O)Nc3ccc4c(c3)C(O)c3ccccc3-4)CC1)C(=O)OC2.Cl (stereo not drawn)
238 to 241 °C	Cc1ccc2c(c1)COC(=O)N2C1CCN(CC(=O)Nc2ccc3c(c2)-c2ccccc2C3O)CC1.Cl (stereo not drawn)
136 °C	Cc1ccc2c(c1)N(C1CCN(CC(=O)Nc3ccc4c(c3)-c3ccccc3C4O)CC1)C(=O)OC2 (stereo not drawn)
209 to 210 °C	O=C(CN1CCC(N2C(=O)OCc3ccccc32)CC1)Nc1cccc2c1-c1ccccc1C2O (stereo not drawn)

Source: US20070059364A1, “Active substance combination comprising a compound with npy receptor affinity and a compound with 5-ht6 receptor affinity” (Laboratorios Del Dr. Esteve S.A., priority 2003, published 2007)
